Assay results published in US20250388564A1, “METHODS OF MANUFACTURING PYRIDAZINONE COMPOUNDS” (Edgewise Therapeutics, Inc., priority 2022, published 2025).
Converted amounts (≈) assume the structure as drawn.

Experiment: Solubility of Compound IX in solvents (Table 1)
Type: physicochemical
Conditions: for solubility: organic solvent or mixture

**Q.** Which solubility (1,4-dioxane, solvent 1,4-dioxane (entry 8)) does the source give for `O=c1ccc(-c2cnc(OCC(F)(F)F)nc2)n[nH]1` [Compound IX, 6-[2-(2,2,2-trifluoroethoxy)pyrimidin-5-yl]-2,3-dihydropyridazin-3-one] here?
**A.** The solubility was 2900 µg/mL (≈ 10.7 mM).

**Q.** What about the solubility (ACN, solvent ACN (entry 6)) of the same compound?
**A.** The solubility was 1500 µg/mL (≈ 5.51 mM).

**Q.** And the solubility (DCE, solvent DCE (entry 1))?
**A.** Its solubility is 150 µg/mL (≈ 0.551 mM).

**Q.** And the solubility (DCM, solvent DCM (entry 17))?
**A.** The solubility was 300 µg/mL (≈ 1.1 mM).

**Q.** What about the solubility (DMA, solvent DMA (entry 19)) of the same compound?
**A.** The solubility was 13000 µg/mL (≈ 47.8 mM).

**Q.** What about the solubility (DME, solvent DME (entry 4)) of the same compound?
**A.** The solubility was 3260 µg/mL (≈ 12 mM).

**Q.** What about the solubility (DME, solvent DME (entry 21)) of the same compound?
**A.** Its solubility is 10000 µg/mL (≈ 36.7 mM).

**Q.** What about the solubility (DMF, solvent DMF (entry 18)) of the same compound?
**A.** Its solubility is 21000 µg/mL (≈ 77.2 mM).

**Q.** And the solubility (DMSO, solvent DMSO (entry 10))?
**A.** Its solubility is 45000 µg/mL (≈ 165 mM).

**Q.** What about the solubility (EA, solvent EA (entry 16)) of the same compound?
**A.** Its solubility is 700 µg/mL (≈ 2.57 mM).

**Q.** What about the solubility (EtOH, solvent EtOH (entry 12)) of the same compound?
**A.** Its solubility is 1000 µg/mL (≈ 3.67 mM).

**Q.** What about the solubility (MTBE, solvent MTBE (entry 15)) of the same compound?
**A.** Its solubility is 100 µg/mL (≈ 0.367 mM).

**Q.** What about the solubility (MeOH, solvent MeOH (entry 11)) of the same compound?
**A.** The solubility was 2500 µg/mL (≈ 9.18 mM).

**Q.** What about the solubility (NMP, solvent NMP (entry 20)) of the same compound?
**A.** The solubility was 44000 µg/mL (≈ 162 mM).

**Q.** What about the solubility (THF, solvent THF (entry 5)) of the same compound?
**A.** Its solubility is 2730 µg/mL (≈ 10 mM).

**Q.** What about the solubility (acetone, solvent Acetone (entry 2)) of the same compound?
**A.** The solubility was 1590 µg/mL (≈ 5.84 mM).

**Q.** And the solubility (i-PrOH, solvent i-PrOH (entry 13))?
**A.** Its solubility is 500 µg/mL (≈ 1.84 mM).

**Q.** And the “solubility (in words)” value (overall statement on Table 1)?
**A.** Its value is “limited solubility”.

**Q.** What about the solubility (t-BuOH, solvent t-BuOH (entry 14)) of the same compound?
**A.** The solubility was 100 µg/mL (≈ 0.367 mM).

**Q.** What about the solubility (thietane 1,1-dioxide, solvent thietane 1,1-dioxide (entry 3)) of the same compound?
**A.** The solubility was 6350 µg/mL (≈ 23.3 mM).
